Data from patent publication US10046000B2, “Use of 2-methylene-19-nor-(20S)-1α,25-Dihydroxyvitamin D3 to treat and prevent secondary hyperparathyroidism in a subject having renal failure” (Wisconsin Alumni Research Foundation, priority 2012, dated 2018).
Read-outs that look alike come from different tables or passages of the source.

Columns and labels:
[1] = tested on: uremic rat model; format: in vivo; details: for effect on serum phosphorus levels: nephrectomized rats
Description: (§1) Nephrectomy Rat Model. Disease Induction. Weanling, male Sprague-Dawley rats were obtained from Harlan (Madison, Wis.). Following a 10-13 day acclimation period, the animals had two-thirds of one kidney removed. After a week, the other entire kidney was removed. The animals were then switched from a chow diet to a purified rodent diet (Suda et al., Purified Rodent Diet-Diet 11) containing 0.6% Ca and 0.9% phosphorus and fat soluble vitamins A, D, E and K. Water and diet were provided ad libitum.
(§2) Animal Husbandry. Animals were housed in suspended, plastic shoe-box style cages with corn cob bedding (prior to surgery) or in stainless steel, wire-bottom cages (approximately one week after surgery). The animal rooms were maintained at a temperature of 68 to 72° F. and a relative humidity of 25 to 75%. The holding rooms were set to provide 12 hours of light per day.
(§3) Treatment Groups. Approximately four weeks after the second surgery, animals were assigned to treatment groups (14-15 animals/group) so that each group had the same average PTH level.
(§4) Dose Preparation (Vehicle Formulation). The negative control material was prepared by volumetrically measuring ethanol (5%) and Neobee oil, mixing and then placing in storage at 2 to 8° C.
Dose Preparation (2MD Formulation). 2MD formulations (DP001, Sigma Aldrich Fine Chemicals, Madison, Wis.) were prepared by first determining the concentration of an ethanol stock solution using UV spectrophotometry (extinction coefficient=42,000; λmax=252 nm). The solutions were then volumetrically added to Neobee oil so that there was no more than 5% ethanol in the final solution. If necessary, additional ethanol was added to bring the final ethanol amount to 5%. The solution was mixed and stored at 2 to 8° C.
Dose Administration Method. Both vehicle and 2MD were administered orally to the back of the tongue at 0.5 ml/kg body weight once daily for 8 weeks, or intraperitoneally three times per week for 4 weeks.
Serum Parathyroid Hormone (PTH) Levels. By “serum PTH levels” we mean the amount of PTH released by the parathyroid gland. PTH is the most important regulator of the body's calcium and phosphorus levels, and is controlled by the level of calcium in the blood. Low blood calcium levels cause increased PTH to be released, while high blood calcium levels inhibit PTH release. Normal values are 10-55 picograms per milliliter ([…]). Four weeks after surgery and 4 and 8 weeks after treatment initiation, blood was collected from the tail artery and the concentration of bioactive serum PTH was measured using the rat BioActive Intact PTH ELISA Kit from Immutopics, Inc. (San Clemente, Calif.).
Serum Calcium Analysis. Four weeks following surgery and 4 and 8 weeks after treatment started, blood was collected from the tail artery of each experimental animal. The blood was allowed to coagulate at room temperature and then centrifuged at 3000×g for 15 minutes. The serum was transferred to a polypropylene tube and stored frozen at −20° C. The level of calcium was determined by diluting the serum into 0.1% lanthum chloride and measuring the absorbance on an atomic absorption spectrophotometer (Perkin Elmer Model 3110, Shelton, Conn.).
Phosphorus Assay. Four weeks after surgery and 8 weeks after treatment started, blood was collected from the tail artery of each experimental animal. The blood was allowed to coagulate at room temperature and then centrifuged at 3000×g for 15 minutes. The serum was transferred to a polypropylene tube and stored frozen at −20° C. The level of phosphorus was determined using a clinical analyzer (Pentra 400, Horiba ABX Diagnostics—France; UV method using phosphomolybdate).
Creatinine Assay. Measuring serum creatinine levels is a useful and inexpensive method of evaluating renal dysfunction. Creatinine is a non-protein waste product of phosphocreatinine metabolism by skeletal muscle tissue. Creatinine production is continuous and is proportional to muscle mass. […]

[2] = tested on: intestinal calcium transport; details: in vivo; cited from earlier work
[3] = tested on: postmenopausal women; assay: Phase 1B trial, oral administration of 2MD to postmenopausal women; format: in vivo, human; details: for reduction of serum PTH levels: oral
[4] = tested on: uremic rat model; assay: Uremic rat model, intraperitoneal (ip) administration of 2MD; format: in vivo
Description: as §1, §2, §3, §4
Dose Preparation (2MD Formulation). 2MD formulations (DP001, Sigma Aldrich Fine Chemicals, Madison, Wis.) were prepared by first determining the concentration of an ethanol stock solution using UV spectrophotometry (extinction coefficient=42,000; λmax=252 nm). […]
Serum Parathyroid Hormone (PTH) Levels. […] Four weeks after surgery and 4 and 8 weeks after treatment initiation, blood was collected from the tail artery and the concentration of bioactive serum PTH was measured using the rat BioActive Intact PTH ELISA Kit from Immutopics, Inc. (San Clemente, Calif.).
Serum Calcium Analysis. […] The level of calcium was determined by diluting the serum into 0.1% lanthum chloride and measuring the absorbance on an atomic absorption spectrophotometer (Perkin Elmer Model 3110, Shelton, Conn.). […]

[5] = tested on: bone calcium mobilization; details: in vivo; cited from earlier work
[6] = tested on: bovine parathyroid cells; details: cited from earlier work; for suppression of PTH secretion compared with 1,25-(OH)2D3: cultured bovine parathyroid cells
[7] = tested on: serum calcium; details: rat, in vivo; cited from earlier work
[8] = tested on: rats with renal insufficiency; details: four times during eight days, cited from earlier work
[9] = tested on: MRL/MpJ-FAS^lpr (MRL/pr) mouse model; details: 300 ng per day through the diet; cited from earlier work
[10] = tested on: uremic dogs; details: cited from earlier work
[11] = tested on: PTH mRNA; details: in vivo; cited from earlier work
[12] = tested on: uremic rats; details: cited from earlier work

With C=C1[C@H](O)CC(=C/C=C2\CCC[C@@]3(C)C2CCC3[C@@H](C)CCCC(C)(C)O)C[C@H]1O (stereo partly drawn) [2MD, 2-methylene-19-nor-(20S)-1α,25-dihydroxyvitamin D3] the “doses at which clinically significant serum calcium increases are observed” value ([1]; male, Sprague-Dawley, rat, in vivo, po, 8 weeks) was 5 ng/kg bw, the “effect on serum PTH levels” value ([1]; oral, daily doses of 1-5 ng/kg bw, FIG. 5) was “prevented an increase or effected a reduction in serum PTH levels” and the “serum creatinine levels compared to Vehicle control animals” value ([1]; oral, daily doses of 1-5 ng/kg bw, FIG. 11) was “resulted in lower serum creatinine levels”. The “effect on serum phosphorus levels” value ([1]; oral, daily doses of 1-5 ng/kg bw, FIG. 9) was “reduced serum phosphorus levels”, the “intestinal calcium transport activity” value [2] was “modest increase in intestinal calcium transport activity” and the serum calcium levels ([3]; 400 ng per day) was “maintaining serum calcium levels within the physiologically normal range”. The “reduction in serum PTH levels” value ([3]; 400 ng per day, FIG. 13) was over 60%, the “reduction of serum PTH levels” value ([3]; 110 ng once daily for 28 days) was 21% and the “reduction of serum PTH levels” value ([3]; 440 ng once daily for 28 days) was 67%. The “dose at which serum calcium levels were raised” value ([4]; ip three times per week, FIG. 3) was 10 ng/kg bw, the “effect on serum PTH” value ([4]; ip, 5 ng/kg bw three times per week, FIG. 2) was “prevented increases in serum PTH” and the “effect on circulating PTH levels” value ([4]; ip, 10 ng/kg bw three times per week, FIG. 2) was “suppresses circulating PTH levels”. For the same molecule, the “bone calcium mobilization activity” value [5] was 10-100 times that of 1α,25-(OH)2D3.
In the case of C=C1/C(=C\C=C2/CCC[C@]3(C)C([C@H](C)CC#CC(C)(C)O)=CC[C@@H]23)C[C@@H](O)C[C@@H]1O [1,25-(OH)2-16-ene-23-yne-D3], the “suppression of PTH secretion compared with 1,25-(OH)2D3” value [6] is given as “nearly as effective as 1,25-(OH)2D3”.
In the case of C=C1C(=CC=C2CCCC3(C)C2CCC3C(C)CCCCCC(C)(C)O)CC(O)CC1O (stereo not drawn) [1,25-(OH)2-24-dihomo-D3], the “suppression of PTH secretion compared with 1,25-(OH)2D3” value [6] is given as “nearly as effective as 1,25-(OH)2D3”.
For C[C@H](/C=C/[C@H](C)C(C)(C)O)[C@H]1CC[C@H]2/C(=C/C=C3C[C@@H](O)C[C@H](O)C3)CCC[C@]12C [Zemplar®, 19-nor-1α,25-dihydroxy-ergocalciferol], the “serum creatinine levels compared to Vehicle control animals” value ([1]; oral Zemplar) was “lowered serum creatinine levels compared to Vehicle control animals, however, only at dose levels that significantly increased serum calcium”, the “effect on serum phosphorus levels” value ([1]; oral Zemplar) was “did not reduce serum phosphorus levels” and the “duration of the effect on serum PTH” value ([1]; oral daily treatment for up to 8 weeks) was “the therapeutic effect was lost as the disease progressed”. For the same molecule, the “effect on serum PTH levels” value ([1]; oral, daily doses of 30-300 ng/kg bw, FIG. 6) was “prevented an increase in serum PTH levels”, the “dose that increased serum calcium to the same magnitude” value [7] was 100 ng/rat/10 days and the “changes in serum ionized calcium or serum phosphorus” value ([8]; 8, 25 and 75 ng) was “none of the doses of 19-nor-1,25-(OH)2D2 produced statistically significant changes”. The “suppression on PTH release” value ([6]; 10^−7M) was 52%.
For C=C1/C(=C\C=C2/CCC[C@]3(C)[C@@H]([C@H](C)CCCC(C)(C)O)CC[C@@H]23)C[C@@H](O)C[C@@H]1O [1,25-(OH)2D3, 1α,25-dihydroxyvitamin D3], the “dose that increased serum calcium to the same magnitude” value [7] is listed as 10 ng/rat/10 days, the “effect on serum calcium and phosphorus” value ([8]; 8 ng dose) is listed as “induced hypercalcemia and hyperphosphatemia” and the “effect on pre-pro-PTH mRNA and PTH secretion” value ([8]; 2, 4 and 8 ng) is listed as “suppressed pre-pro-PTH mRNA and PTH secretion”. The “dose at which the decrease of pre-pro-PTH mRNA and PTH secretion was statistically significant” value [8] was 8 ng, the hypercalcemia [9] was “severe hypercalcemia always accompanied this treatment” and the proteinuria [9] was “completely prevents proteinuria”.
For C=C1/C(=C\C=C2/CCC[C@]3(C)[C@@H]([C@H](C)OCCC(C)(C)O)CC[C@@H]23)C[C@@H](O)C[C@@H]1O [22-oxacalcitriol], the “serum PTH” value [10] is given as “suppress serum PTH”, the “suppression of PTH mRNA” value [11] is given as “could suppress PTH mRNA” and the “suppression of PTH secretion compared with 1,25-(OH)2D3” value [6] is given as “nearly as effective as 1,25-(OH)2D3”. The “serum PTH” value [12] was “suppress serum PTH”.
In the case of C=C1C(=CC=C2CCCC3(C)C2CCC3C(C)C=CCCCCC(C)(C)O)CC(O)CC1O (stereo not drawn) [1,25-(OH)2-24-trihomo-22-ene-D3], the “suppression of PTH secretion compared with 1,25-(OH)2D3” value [6] is listed as “nearly as effective as 1,25-(OH)2D3”.
